{"source": "patent US9745631B2", "about": "“Methods for diagnosing and treating oncogenic kras-associated cancer” (Dana-Farber Cancer Institute, Inc., priority 2011, dated 2017)", "format_in_all_cases": "cell-based, mouse", "key": {"[1]": {"test_system": "Gfpt1", "assay": "Western blot for O-GlcNAc after shRNA knockdown of Gfpt1", "settings": "shRNA against Gfpt1, FIG. 25", "procedure": "FIG. 25 is a photograph of a Western blot analysis for O-GlcNAc and Gfpt1 levels in KrasG12D p53L/+ cells infected with shRNA against GFP or Gfpt1. For control samples, MEFs were cultured in the presence or absence of glucose (Glc+, Glc−) for 24 hours. Actin was used as a loading control.\nTissues were fixed in 10% formalin overnight and embedded in paraffin. Immunohistochemical analysis was performed as described (see, Aguirre et al. (2003) Genes Dev 17:3112-3126). The visualization of primary antibodies was performed with horseradish peroxidase system (Vectastain ABC kit, Vector Labs, Inc., Burlingame, Calif.). Images were captured using a Leica DM1400B microsystem and Leica FW4000 version 1.2.1. The primary antibodies used for immunohistochemistry or Western blot were: SMA (NB600-531, Novus Biologicals®, Littleton, Colo.), BrdU (ab1293, Abcam, Cambridge, Mass.), cleaved-Caspase3 (9664, Cell Signaling, Danvers, Mass.), phosphor-Akt (4060, Cell Signaling), phospho-Erk (4376, Cell Signaling), phospho-S6 (4858, Cell Signaling), Actin (sc-1615, Santa Cruz, Santa Cruz, Calif.), Ras (05-516, Millipore, Billerica, Mass.), O-GlcNAc (ab2739, Abcam). Gfpt1 antibody was a kind gift from Immuno-Biological Laboratories Co., Gunma, Japan.\n(§1) Lentiviral shRNA clones targeting Gfpt1, RPIA, RPE, MYC, and FASN and nontargeting control construct shGFP were obtained from the RNAi Consortium at the Dana-Farber/Broad Institute. The clone IDs and nucleic acid sequences for the shRNAs are:\nLentiviruses were produced in 293T cells with packing mix (ViraPower Lentiviral Expression System, Invitrogen, Carlsbad, Calif.) as per manufacturer's instruction. 293T cell supernatant containing the shRNA lentivirus was collected, filtered through 0.45 μm filter, and added to target iKras cells in the presence of 8 μg/ml polybrene.\nTo further substantiate the essentiality of Kras^G12D-mediated control of protein glycosylation, the impact of shRNA-mediated knockdown of Gfpt1 was assessed. […]"}, "[2]": {"test_system": "iKras p53L/+ cells", "assay": "Western blot for phospho-Akt, phospho-Erk, phospho-S6 and Myc in inhibitor-treated cells", "settings": "MEK inhibitor treatment (AZD8330 50 nM, 18 hr)", "procedure": "FIG. 42 is a photograph of a Western blot showing expression of phospho-Akt, phospho-Erk, phospho-S6, Myc, and Actin (loading control) in iKras p53L/+ cells treated with AZD8330 (50 nM), BKM120 (150 nM), or Rapamycin (20 nM) for 18 hours. As control, cells were cultured in the presence or absence of doxycycline for 24 hours.\nTissues were fixed in 10% formalin overnight and embedded in paraffin. Immunohistochemical analysis was performed as described (see, Aguirre et al. (2003) Genes Dev 17:3112-3126). The visualization of primary antibodies was performed with horseradish peroxidase system (Vectastain ABC kit, Vector Labs, Inc., Burlingame, Calif.). Images were captured using a Leica DM1400B microsystem and Leica FW4000 version 1.2.1. […]\nTo further dissect the downstream mechanism of Kras^G12D-mediated metabolic reprogramming, specific pharmacological inhibitors were used to examine the impact of effector pathways on tumor metabolism. iKras p53L/+ cells were treated with AZD8330 (50 nM), BKM120 (150 nM), or Rapamycin (20 nM) for 18 hr. In parallel, cells were cultured in the presence or absence of doxy for 24 hr to serve as controls and relative mRNA levels of indicated metabolism genes were measured by QPCR. […]"}, "[3]": {"test_system": "iKras p53L/+ cells", "assay": "Steady-state metabolite levels by targeted LC-MS/MS in inhibitor-treated cells", "settings": "18 hr", "procedure": "FIG. 43 is a bar graph showing the relative steady-state levels of the indicated metabolites measured by targeted LC-MS/MS, in iKras p53L/+ cells treated with AZD8330 (50 nM), BKM120 (150 nM), or Rapamycin (20 nM) for 18 hours. As control, cells were cultured in the presence or absence of doxycycline for 24 hours. Error bars represent SD of the mean. *p<0.05; **p<0.01.\nTwo independent iKras p53^L/+ tumor lines and one LSL-Kras p53^L/+ line were maintained in basal media in the presence or absence of doxycycline for 24 h. Fresh media was added 2 hours before the experiment. For metabolite collection, media from technical triplicates (in 10 cm dishes at ˜70% confluence) was fully aspirated and 4 mL of 80% (v/v) methanol was added at dry ice temperatures. Cells and the metabolite-containing supernatants were collected into conical tubes. Insoluble material in lysates was centrifuged at 2,000×g for 15 min, and the resulting supernatant was evaporated using a refrigerated speed vac. […] Ten microliters were injected and analyzed using a 5500 QTRAP hybrid triple quadrupole mass spectrometer (AB/SCIEX) coupled to a Prominence UFLC HPLC system (Shimadzu) via selected reaction monitoring (SRM) of a total of 254 endogenous water soluble metabolites for steady-state analyses of samples. […] Approximately 9-12 data points were acquired per detected metabolite. […]"}, "[4]": {"test_system": "iKras p53L/+ cells", "assay": "QPCR of metabolism genes in inhibitor-treated iKras p53L/+ cells", "settings": "AZD8330 50 nM, 18 hr, FIG. 41", "procedure": "FIG. 41 is a bar graph showing the relative mRNA expression of the indicated genes in iKras p53L/+ cells treated with MEK inhibitor, AZD8330 (50 nM), BKM120 (150 nM), or Rapamycin (20 nM) for 18 hours. Error bars represent SD of the mean; *p<0.05; **p<0.01.\nTo further dissect the downstream mechanism of Kras^G12D-mediated metabolic reprogramming, specific pharmacological inhibitors were used to examine the impact of effector pathways on tumor metabolism. iKras p53L/+ cells were treated with AZD8330 (50 nM), BKM120 (150 nM), or Rapamycin (20 nM) for 18 hr. In parallel, cells were cultured in the presence or absence of doxy for 24 hr to serve as controls and relative mRNA levels of indicated metabolism genes were measured by QPCR. Some cell lysates were blotted for phospho-Akt, phospho-Erk, phospho-S6, and Myc. […] To gain further insight into the Kras^G12D-mediated transcriptional regulation that facilitates metabolic reprogramming, promoter analysis was performed on differentially expressed genes upon Kras^G12D inactivation."}, "[5]": {"test_system": "iKras p53L/+ PDAC cells", "assay": "Clonogenic assay", "settings": "shRNA against FASN, FIG. 49", "procedure": "FIG. 38 is a bar graph quantifying the clonogenic activity, expressed as colony number, in iKras p53L/+ cells maintained under high (11 mM) or low (1 mM) glucose, determined for cells infected with shRNA against GFP, RPIA, RPE, or RPIA+RPE; statistical significance is indicated as follows: *: p<0.05; **: p<0.01.\nFIG. 49 is a bar graph quantifying the colony numbers in a clonogenic assay for iKras p53L/+ PDAC cells infected with shRNA against GFP or FASN.\n400 cells were seeded into each well of 6-well plate in duplicate and colonies were stained 7-10 days later with 0.2% crystal violet in 80% methanol."}, "[6]": {"test_system": "FASN", "assay": "Relative expression of FASN after shRNA against FASN", "settings": "iKras p53L/+ PDAC, FIG. 48", "description": "FIG. 48 is a bar graph quantifying the relative expression level of FASN in iKras p53L/+ PDAC infected with shRNA against GFP or FASN.\nas §1\nAs shown in Example 4, above, extinction of iKras led to decreased expression of FASN. Thus, it was next determined whether FASN plays a role in tumorigenesis in PDAC tumor model. iKras p53L/+ PDAC were treated with shRNA against FASN or GFP (control). […] Thus, FASN was determined to play a role in tumorigenic activity of iKras p53L/+ PDAC cells."}, "[7]": {"test_system": "iKras p53L/+ cells", "assay": "GSH and GSSG levels normalized to cell number", "settings": "0.5 mM BSO for 24 hours, FIG. 33", "procedure": "FIG. 33 is a bar graph quantifying the GSH and GSSG levels normalized to cell number in iKras p53L/+ cells or constitutive LSL-KrasG12D p53L/+ control cells (LSL-Kras) maintained in the presence or absence of doxycycline (Dox+/−) or treated with 0.5 mM BSO for 24 hours; statistical significance is indicated as follows: *: p<0.05.\nDoxycycline (Research Product International), BSO (Sigma), Ras activation assay kit (Millipore), G6PD activity assay kit (BioVision), GSH/GSSG-Glo™ assay kit (Promega, Madison, Wis.).\nTo explore this possibility in the context of Kras^G12D-driven PDAC, ^14C1- or ^14C6-labeled glucose was used to measure the production of CO2 from the oxidative PPP (^14C1—CO2) relative to that generated from the glycolysis-TCA cycle route (^14C6—CO2). Consistent with data showing that Kras^G12D de-induction exerts a minimal effect on TCA cycle intermediates (FIG. 18), no obvious change in the release of ^14C6—CO2 was observed upon doxycycline withdrawal (FIG. 32). More importantly, no significant decrease in the release of ^14C1—CO2 was detected (FIG. 32), indicating Kras^G12D extinction was not associated with decreased flux through the oxidative arm of the PPP."}}}
{"compound": "shRNA #1: lentiviral shRNA clone targeting Gfpt1, CCTGAAACTTAAGACAGTTAA (SEQ ID NO: 165)", "values": [{"measurement": "overall O-linked glycosylation (O-GlcNAc)", "setting": "[1]", "value": "reduced"}]}
{"compound": "Cc1cc(C(=O)NOCCO)c(Nc2ccc(I)cc2F)n(C)c1=O", "note": "[AZD8330]", "values": [{"measurement": "Myc protein level", "setting": "[2]", "value": "decreased"}, {"measurement": "metabolite changes in the glycolysis, HBP and nonoxidative PPP pathways", "setting": "[3]; AZD8330 50 nM, FIG. 43", "value": "recapitulated the Kras^G12D inactivation induced metabolite changes"}, {"measurement": "expression of glycolytic genes (Glut1, Hk1, Eno1, Ldha), HBP gene (Gfpt1) and nonoxidative PPP gene (Rpia), relative mRNA", "setting": "[4]", "value": "significantly decreased"}]}
{"compound": "shRNAS: lentiviral shRNA clone targeting FASN, GCTGCGGAAACTTCAGGAAAT (SEQ ID NO: 176)", "values": [{"measurement": "colony formation", "setting": "[5]", "value": "to some extent"}]}
{"compound": "Nc1cc(C(F)(F)F)c(-c2cc(N3CCOCC3)nc(N3CCOCC3)n2)cn1", "note": "[BKM120]", "values": [{"measurement": "impact on iKras-directed tumor metabolism", "setting": "[3]; BKM120 150 nM, FIGS. 41, 42 and 43", "value": "did not exhibit a significant impact"}]}
{"compound": "shRNA4: lentiviral shRNA clone targeting FASN, CGTCTATACCACTGCTTACTA (SEQ ID NO: 175)", "values": [{"measurement": "FASN expression", "setting": "[6]", "value": "marked decrease"}, {"measurement": "colony formation", "setting": "[5]", "value": "marked decrease"}]}
{"compound": "shRNA #2: lentiviral shRNA clone targeting Gfpt1, CGTCTCTCTATCCACCGAATT (SEQ ID NO: 166)", "values": [{"measurement": "overall O-linked glycosylation (O-GlcNAc)", "setting": "[1]", "value": "failed to affect glycosylation"}]}
{"compound": "shRNA #3: lentiviral shRNA clone targeting Gfpt1, CAGGGCATTCTCAGTGTGATT (SEQ ID NO: 167)", "values": [{"measurement": "overall O-linked glycosylation (O-GlcNAc)", "setting": "[1]", "value": "reduced"}]}
{"compound": "CCCCS(=N)(=O)CCC(N)C(=O)O", "note": "(stereo not shown) [BSO, buthionine sulfoximine]", "values": [{"measurement": "ratio of GSH/GSSG", "setting": "[7]", "value": "dramatically reduced"}]}
{"compound": "FASN shRNA1: lentiviral shRNA clone targeting FASN, GCTGGTCGTTTCTCCATTAAA (SEQ ID NO: 172)", "values": [{"measurement": "FASN expression", "setting": "[6]", "value": "marked decrease"}, {"measurement": "colony formation", "setting": "[5]", "value": "marked decrease"}]}
